Columns and labels:
[1] = biological target: human growth hormone secretagogue receptor (hGHS-R1a) (Homo sapiens, UniProt Q92847); assay: Competitive radioligand binding assay (ghrelin receptor), standard method A
[2] = Pharmacokinetic analysis (oral bioavailability, elimination half-life) in the rat; format: in vivo
Excerpt: D. Pharmacokinetic Analysis of Representative Compounds of the Invention
The pharmacokinetic behavior of compound of the invention can be ascertained by methods well known to those skilled in the art. (Wilkinson, G. R. “Pharmacokinetics: The Dynamics of Drug Absorption, Distribution, and Elimination” in Goodman & Gilman's The Pharmacological Basis of Therapeutics, Tenth Edition, Hardman, J. G.; Limbird, L. E., Eds., McGraw Hill, Columbus, Ohio, 2001, Chapter 1.) The following method was used to investigate the pharmacokinetic parameters (elimination half-life, total plasma clearance, etc.) for intravenous, subcutaneous and oral administration of compounds of the present invention. See also U.S. patent application Ser. No. 11/149,512 and Ser. No. 11/149,731 and Intl. Pat. Appl. No. PCT/US2007/017905.
The table below presents oral bioavailability and elimination half-life data in the rat for representative compounds of the present invention. The parameters were determined by HPLC-MS after oral administration of an 8 mg/kg dose of the compound, except for compound 822 where a 2 mg/kg dose was used.

fasted rats = assay: Gastric emptying in fasted rat model, standard method E; format: in vivo; conditions: average where repeated
Procedure: E. Gastric Emptying in Fasted Rat Model
To examine the effects of compounds of the invention in a model for gastroparesis, compounds were evaluated for possible effects on gastric emptying in fasted rats. This model is used to determine the potential of compounds of the invention to promote motility in fasted rats.
• 1. Overnight-fasted rats (male, Wistar, 200 g, n=5/group) were given a meal (2 mL) of methylcellulose (2%) by intragastric gavage. The meal was labeled with phenol red (0.05%). • 2. Test articles (dosed at various concentrations, typically 1, 3, 10, 30 mg/kg), vehicle and positive control (metoclopramide, a 5-HT ligand and prokinetic agent currently prescribed for the treatment of GI disorders, including gastroparesis) were administered by oral gavage immediately after the meal (time=0). • 3. […] Total phenol red remaining in the stomach was quantified by a colorimetric method at 560 nm. • 5. A 30% or more increase in gastric emptying (as compared to the vehicle control) was considered significant. • 6. One-way ANOVA, Dunnet's post-hoc statistical test was applied Results
The effects of representative compounds of the invention in the rat gastric emptying model described in standard method E are provided in the following table. In cases where an experiment was conducted multiple times, the average of the individual results is presented.

[3] = Plasma protein binding, human plasma (equilibrium dialysis); format: in vitro ADME; conditions: test concentration 3 μg/mL
Excerpt: J. Plasma Protein Binding
The pharmacokinetic and pharmacodynamic properties of drugs are largely a function of the reversible binding of drugs to plasma or serum proteins such as albumin and α1-acid glycoprotein. In general, only unbound drug is available for diffusion or transport across cell membranes, and for interaction at the pharmacological target. On the other hand, drugs with low plasma protein binding generally have large volumes of distribution and rapid clearance since only unbound drug is available for glomerular filtration and, in some cases, hepatic clearance. Thus, the extent of plasma protein binding can influence efficacy, distribution and elimination. The ideal range for plasma protein binding is in the range of 87-98% for most drug products.
Protein binding studies were performed using human plasma. Briefly, 96-well microplates were used to incubate various concentrations of the test article for 60 min at 37° C. Bound and unbound fractions are separated by equilibrium dialysis, where the concentration remaining in the unbound fraction is quantified by LC-MS or LC-MS-MS analysis. […].
The table below presents protein binding data for representative compounds of the present invention in both human and rat plasma.

hGHS-R1a = biological target: T1, hGHS-R1a (Homo sapiens, UniProt Q92847); assay: Activation-desensitization profile, Ca2+ flux in HEK293 cells stably expressing hGHS-R1a; format: cell-based; conditions: higher positive = less desensitization potential
T1 construct: expressed in transfected cells
Procedure: M. Activation-Desensitization Profile
It is well-known that agonists of G-protein coupled receptors can induce desensitization or tachyphylaxis, thereby limiting the potential of agents acting at the receptor as therapeutics for chronic use.
• 1. […] Agonist-induced Ca^+2 fluxes were measured after loading with Ca^+2 indicator Fluo-4-AM. • 3. […] Results

in vitro = conditions: human, Caco-2
Procedure: L. Determination of Caco-2 Permeability
Fully differentiated cell monolayers can be used to assess the membrane transport properties of novel compounds.
Permeability across the Caco-2 cell layer was determined by growing the cells on a membrane placed between two (donor and acceptor) chambers. […] Permeability in this direction represents intestinal absorption. Permeability may also be determined from the basolateral to the apical side of the Caco-2 cell. A higher apical to basolateral Papp, compared to the basolateral to apical Papp, is indicative of carrier-mediated transport.
Permeability (10 μM) for compounds of the invention in the apical to basolateral and basolateral to apical direction were tested in duplicate. Samples will be collected from the donor and acceptor chambers at the beginning (0 min) and following 60 min of incubation at 37° C. and stored frozen at −70° C. until bioanalysis. Samples for each test compound generated from the Caco-2 permeability assay were further analyzed by LC-MS-MS. The permeability of [^3H]-mannitol and [^3H]-propranolol were determined in parallel as controls.
The permeability coefficient (Papp) of each compound and radiolabeled standard was determined using the following equation:
where dQ/dT represents the permeability rate, Ci denotes the initial concentration in the donor compartment, and A represents the surface area of the filter. Ci is determined from the mean concentration of duplicate samples taken prior to addition to the donor compartment. Permeability rates were calculated by plotting the cumulative amount of compound measured in the acceptor compartment over time and determining the slope of the line by linear regression analysis. The duplicate and mean apical to basolateral and basolateral to apical Papp's were reported for each compound and standard.

[4] = system: rat stomach fundus strips; assay: tissue or blood; conditions: read-out: EC50 values for contractility
Procedure: Fundus strips (approximately 0.4×1 cm) were cut from the stomach of adult male Wistar rats parallel to the circular muscle fibers. They were placed between two platinum ring electrodes, 1 cm apart (Radnoti, ADInstruments, USA) in 10 ml tissue baths containing Krebs solution bubbled with 5% CO2 in O2 and maintained at 37° C. Tissues were suspended under 1.5 g resting tension. Changes of tension were measured isometrically with force transducers and recorded with a PowerLab 8/30 data acquisition system (ADInstruments, USA). Tissues were allowed to equilibrate for 60 min during which time bath solutions were changed every 15 min.
EFS was achieved by applying 0.5 ms pulses, 5 Hz frequency, at a maximally effective voltage of 70 V. EFS was applied for 30 sec at 3 min intervals for a 30 min initial period. This initial period was separated by a 5 min interval with wash out of the bath solution. Then, a second period of stimulation was started. […] Responses to the agents were measured and expressed as % of the mean of three or four pre-drug responses to EFS. All compounds were dissolved at 1 mM in distilled water or MeOH, as stock solutions.

human growth hormone secretagogue receptor (hGHS-R1a), sequence (Q92847 whole entry): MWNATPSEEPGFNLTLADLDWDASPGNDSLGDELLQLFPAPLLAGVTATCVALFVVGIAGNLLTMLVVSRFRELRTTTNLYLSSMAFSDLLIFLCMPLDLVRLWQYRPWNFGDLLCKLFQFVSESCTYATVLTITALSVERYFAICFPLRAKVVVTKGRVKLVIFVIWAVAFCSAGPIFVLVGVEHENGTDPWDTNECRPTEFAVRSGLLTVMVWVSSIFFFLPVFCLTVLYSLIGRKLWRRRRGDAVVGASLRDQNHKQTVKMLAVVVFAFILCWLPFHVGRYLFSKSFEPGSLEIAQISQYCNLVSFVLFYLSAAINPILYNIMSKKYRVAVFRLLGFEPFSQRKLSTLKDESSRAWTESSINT
T1 sequence (Q92847 whole entry): as above

Ki [1]: ≤ 0.001 µM
Oral Bioavailability (rat, % F) ([2]; oral administration, 8 mg/kg dose, HPLC-MS): 4 % F
bioavailability ([2]; plasma, 8 mg/kg, oral administration (Example 3)): 4%
half-life ([2]; plasma, oral administration, 8 mg/kg dose, HPLC-MS, read-out: Elimination Half-life (t1/2, rat, min)): 42 min
fraction unbound at 60 min, 3 μg/mL [3]: 0.116
Papp A→B at 60 min, 10 μM (in vitro): 1630 nm/s
Papp B→A at 60 min, 10 μM (in vitro): 1100 nm/s
efflux ratio at 60 min, 10 μM (in vitro): 0.672
EC50 [4]: 0.3 µM
Structure (SMILES): CC(C)C[C@H]1NC(=O)[C@@H](C)N(C)C(=O)[C@H](C2CCCCC2)NC[C@H]2CCc3cccc(c3O2)CCCNC1=O [Compound 801]
Percent Increase in Gastric Emptying After Oral Administration (fasted rats; dose 3 mg/kg): 27%
Percent Increase in Gastric Emptying After Oral Administration (fasted rats; dose 10 mg/kg): 31%
Percent Increase in Gastric Emptying After Oral Administration (fasted rats; dose 30 mg/kg): 40%
Δ(activity-desensitization) (pEC50 − pDC50) (hGHS-R1a): 3.30
